How the values were obtained:
[1] = target: Xc OleB (Xanthomonas campestris pv. campestris, UniProt Q8PDW8); assay: OleB reactions with haloalkanes (GC-FID/MS); type: biochemical; details: monitored by GC-FID/MS
Protocol: The following haloalkane substrates were dissolved in ethanol to a concentration of 5 mM for testing with Xc OleB: 1-iodobutane, 1,3-diiodobutane,1-chlorobutane, 1-bramopentane, 1-chlorohexane, 1-bromooctane, 1-iodoundecane, and 7-(bromomethyl)pentadecane. Reactions were carried out in glass GC vials contained purified OleB (40 μg) and 10 μL of substrate in 500 μL, of 200 mM NaCl, 20 mM NaPO4 at pH 7.4. Reactions were incubated at room temperature overnight, followed by extraction with tert-butyl methylether (MTBE). The MTBE extract was transferred to a clean GC vial and analyzed by gas chromatography/mass spectrometry (GC/MS Agilent 7890a & 5975c with an Agilent J&W bd-ms1 column 30 m length, 0.25 mm diameter, 0.25 μm film).

[2] = target: ClpP protease of Mycobacterium tuberculosis (Mycobacterium tuberculosis, UniProt P9WPC3+P9WPC5); details: cited from earlier work
ClpP protease of Mycobacterium tuberculosis, sequence (P9WPC5 whole entry): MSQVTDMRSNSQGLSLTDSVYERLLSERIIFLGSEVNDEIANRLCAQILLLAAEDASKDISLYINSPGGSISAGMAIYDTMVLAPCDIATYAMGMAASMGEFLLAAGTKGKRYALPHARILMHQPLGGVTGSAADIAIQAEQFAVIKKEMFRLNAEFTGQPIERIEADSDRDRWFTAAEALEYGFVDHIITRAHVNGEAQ
ClpP protease of Mycobacterium tuberculosis, sequence (P9WPC3 whole entry): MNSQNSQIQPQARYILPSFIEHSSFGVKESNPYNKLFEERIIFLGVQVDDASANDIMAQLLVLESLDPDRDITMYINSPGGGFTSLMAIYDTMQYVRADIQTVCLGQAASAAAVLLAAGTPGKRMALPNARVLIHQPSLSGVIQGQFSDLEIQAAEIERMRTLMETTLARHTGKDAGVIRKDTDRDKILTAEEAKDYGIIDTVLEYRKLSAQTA

[3] = target: OleB (Xanthomonas campestris pv. campestris, UniProt Q8PDW8); assay: MALDI-TOF of acyl-enzyme intermediate with haloalkane; type: binding; details: wild type OleB
OleB, sequence (Q8PDW8 whole entry): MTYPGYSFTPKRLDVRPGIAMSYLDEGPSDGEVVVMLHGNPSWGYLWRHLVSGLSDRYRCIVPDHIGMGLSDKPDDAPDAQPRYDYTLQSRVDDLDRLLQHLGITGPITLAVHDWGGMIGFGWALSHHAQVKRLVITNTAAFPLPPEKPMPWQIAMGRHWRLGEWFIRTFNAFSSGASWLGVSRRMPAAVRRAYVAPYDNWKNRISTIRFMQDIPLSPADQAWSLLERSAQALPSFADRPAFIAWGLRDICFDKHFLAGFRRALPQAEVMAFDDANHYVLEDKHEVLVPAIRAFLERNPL
Protocol: To identify an acyl-enzyme intermediate, Matrix Assisted Laser Desorption Ionization (MALDI) was carried out on wild type OleB and OleBD114A proteins that had been reacted with 7-(bromornethyl)pentadecane (TCI). These two substrates contain the reactive bromomethyl group in the middle of a long alkyl chain, thereby mimicking the β-lactone substrate of OleB. Reactions contained 500 μM substrate and 40 μg of OleB in 100 μL of buffer (20 mM NaCl, 5 mM NaPO4, pH 7.4). Reaction were prepared for MALDI using standard C4 ZipTip (Millipore) procedures and spotted on a plate with sinapinic acid. Samples were analyzed on a Bruker Autoflex Speed MALDI-TOF.

[4] = target: T1, pancreatic lipase (Homo sapiens, UniProt P16233); assay: Lipase inhibition by β-lactones in microtiter well plates; type: biochemical; details: FIGS. 13A-E
T1 sequence (P16233 17-465): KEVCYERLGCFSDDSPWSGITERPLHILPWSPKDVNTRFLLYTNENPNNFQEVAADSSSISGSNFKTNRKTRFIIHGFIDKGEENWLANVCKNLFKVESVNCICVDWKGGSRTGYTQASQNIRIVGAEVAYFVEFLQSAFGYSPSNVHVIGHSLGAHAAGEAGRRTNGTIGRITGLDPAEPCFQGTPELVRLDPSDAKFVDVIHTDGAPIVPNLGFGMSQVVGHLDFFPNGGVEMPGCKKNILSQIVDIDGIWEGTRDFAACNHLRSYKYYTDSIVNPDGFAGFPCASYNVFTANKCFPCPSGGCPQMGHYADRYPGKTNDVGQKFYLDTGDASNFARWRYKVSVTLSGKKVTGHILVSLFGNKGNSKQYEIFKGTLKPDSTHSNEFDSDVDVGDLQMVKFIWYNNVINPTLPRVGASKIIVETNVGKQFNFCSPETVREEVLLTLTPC
Protocol: Cis and trans-isomers of β-lactones were synthesized and tested separately. […] These reactions were conducted in microtiter well plates so the inhibition of the lipase can be measured in a high-throughput manner such that hundreds or thousands of β-lactones can be rapidly screened. In addition, fatty acyl-CoA substrates can be combined with OleADC and lipase and lipase inhibition can be detected. Moreover, lipase may be substituted with proteasomes, penicillin binding proteins, pathogenic bacteria, or cancer cells and inhibitory activity of one or a plurality of β-lactones detected.

[5] = target: X. campestris OleB (Xanthomonas campestris pv. campestris, UniProt Q8PDW8); assay: OleB reactions with β-lactone followed by 1H-NMR; type: biochemical; details: for β-lactone that underwent decarboxylation to cis-olefin: 1.0 mg OleB, overnight, room temperature, 1H-NMR
X. campestris OleB, sequence (Q8PDW8 whole entry): as the sequence (Q8PDW8 whole entry) above

[6] = target: human pancreatic lipase (Homo sapiens, UniProt P16233); details: cited from earlier work
[7] = target: human 20S protease (Homo sapiens, UniProt P28072+P28074+Q99436); details: cited from earlier work

Xc OleB, sequence (Q8PDW8 whole entry): as the sequence (Q8PDW8 whole entry) above

Compound: CCCCBr [1-bromobutane]
- dehalogenase activity towards haloalkane substrate [1]: No detectable activity

Compound: CCCCCCBr [1-bromohexane]
- dehalogenase activity towards haloalkane substrate [1]: No detectable activity

Compound: CCCCCl [1-chlorobutane]
- dehalogenase activity towards haloalkane substrate [1]: No detectable activity

Compound: CCCCCCCl [1-cholohexane]
- dehalogenase activity towards haloalkane substrate [1]: No detectable activity

Compound: CCCCI [1-iodobutane]
- dehalogenase activity towards haloalkane substrate [1]: No detectable activity

Compound: CCCCCCCCCCCI [1-iodoundecane]
- dehalogenase activity towards haloalkane substrate [1]: No detectable activity

Compound: CCCC1OC(=O)C1Cc1ccccc1 (stereo not shown) [3-benzyl, 4-propyl oxetanone]
- inhibition of ClpP protease [2]: inhibit the ClpP protease of Mycobacterium tuberculosis

Compound: CCCCCCCCC(CBr)CCCCCC (stereo not shown) [7-(bromomethyl)pentadecane]
- dehalogenase activity towards haloalkane substrate [1]: No detectable activity
- acyl-enzyme intermediate formation (mass shift) [3]: forms a stable acyl-enzyme intermediate

Compound: CCCCCCCCCCC[C@@H](C[C@@H]1OC(=O)[C@H]1CCCCCC)OC(=O)[C@H](CC(C)C)NC=O [Orlistat, tetrahydrolipstatin]
- lipase inhibitory activity [4]: inhibits pancreatic lipase at nanogram levels

Compound: CCCCCCCCCC1OC(=O)C1CCCCCCCC (stereo not drawn) [cis-β-lactone, 3-octyl-4-nonyl-2-oxetanone]
- β-lactone that underwent decarboxylation to cis-olefin [5]: 47%
- cis-β-lactone starting material converted to cis-olefin ([5]; 2 mg of OleB): 54%
- cis-β-lactone starting material converted to cis-olefin ([5]; 4 mg of OleB): 63%

Compound: CCCCC/C=C\C/C=C\C[C@@H](C[C@@H]1OC(=O)[C@H]1CCCCCC)OC(=O)[C@H](CC(C)C)NC=O [lipstatin]
- inhibition of human pancreatic lipase [6]: inhibiting human pancreatic lipase

Compound: CCCCCCCCCC1OC(=O)C1CCCCCCCC (stereo not drawn) [trans-β-lactone, 3-octyl-4-nonyl-2-oxetanone]
- β-lactone that underwent decarboxylation to cis-olefin [5]: 4%

Compound: salinosporamide
- inhibition of human 20S protease function [7]: inhibit human 20S protease function

— patent US20200048668A1, “BIOLOGICAL PRODUCTION OF ß-LACTONES” (Regents of the University of Minnesota, priority 2018, published 2020)
